Laboratory results from patent publication US5532236A, “[1,2,4]triazolo[4,3-a]quinoxaline compounds” (priority 1993, dated 1996).
pIC50: −log10 of the molar value. Each block holds one compound with its values, some of them ahead of it.

Tests used:
[1] = tested on: NMDA (N-methyl-D-aspartate) receptors; conditions: cited from earlier work
[2] = tested on: kainate receptors; conditions: cited from earlier work
[3] = tested on: AMPA receptors; conditions: cited from earlier work
[4] = target: AMPA type receptors; assay: 3H-AMPA binding (Test 1); conditions: rat cerebral cortical membrane homogenate; 5 nM 3H-AMPA; pH 7.1; 0° C., 30 min; read-out: TEST 1 IC50 (displacement of 50% of the specific binding of 3H-AMPA)
Description: AMPA receptor binding may be studied by using ^3 H-AMPA as radioligand.
The pharmacological properties of the compounds of the present invention can be illustrated by determining their capability for displacing radioactively labelled 2-amino-3-hydroxy-5-methyl-4-isoxazolepropionic acid (AMPA) from the AMPA type receptors.
The displacement activity of the compounds may be shown by determining the IC50 value which represents the concentration (μM) which causes a displacement of 50% of the specific binding of ^3 H-AMPA.
^3 H-AMPA binding (Test 1)
500 μl of thawed rat cerebral cortical membrane homogenate in Tris-HCl (30 mM), CaCl2 (2.5 mM) and KSCN (100 mM) pH 7.1 were incubated at 0° C. for 30 min. with 25 μl ^3 H-AMPA (5 nM final concentration) and the test compound and buffer. Nonspecific binding was determined by incubation with L-glutamic acid (600 μM final concentration). The binding reaction was terminated by adding 5 ml of ice-cold buffer followed by filtration through Whatman GF/C glass fibre filters and 2×5 ml wash with ice-cold buffer. Bound radioactivity was measured by scintillation counting. IC50 was determined by Hill analysis of at least four concentrations of test compound.

[5] = tested on: quisqualic acid stimulated spreading depression in chicken retina; assay: Spreading depression (Test 2): antagonism of quisqualic acid stimulated spreading depression in chicken retina; assay type: cell-based; conditions: Gallus gallus, 0.25 h, quisqualate 1 μg/ml, 26° C., 15 min incubation with test compound, read-out: TEST 2 IC50 (50% maximal inhibition of quisqualic acid stimulated spreading depression)
Description: The influence of glutamic acid analogues on secondary effects of glutamate receptor interactions may be studied in vitro by using the phenomenon of spreading depression in chicken retina. Such experiments will provide information as to the efficacies (agonist/antagonist) of the test substances. This is in contrast to binding studies, which only provide information on the affinities of the compounds for the receptor.
The pharmacological properties of the compounds of the present invention can be illustrated by determining their capability for displacing radioactively labelled 2-amino-3-hydroxy-5-methyl-4-isoxazolepropionic acid (AMPA) from the AMPA type receptors. […]
The eyes were initially incubated in normal P.S.S. for 15-30 min. and then transferred to P.S.S. containing quisqualate (1 μg/ml). […] The time taken for an S.D. to start in each eye was measured.
After a further 15 min. of incubation in normal P.S.S. the eyes were transferred to normal P.S.S. containing the test compound and incubated for 15 min. […] The time taken for an S.D. to start in each eye was measured again. The eyes were then placed back in normal P.S.S. and after 15 min. the time taken for S.D. to start was measured again, in order to assess the degree of recovery from any drug effects. […]

Structure (SMILES): O=C(O)C1CN(CCCP(=O)(O)O)CCN1 (racemic) [CPP, 3-[(±)-2-carboxy-piperazin-4-yl]-propyl-1-phosphonic acid]
antagonist activity at NMDA receptors [1]: most potent and selective antagonists

Structure (SMILES): O=C(O)[C@@H]1CCCN[C@H]1C(=O)O (relative stereo) [trans-2,3-PDA, trans-2,3-piperidine dicarboxylic acid]
agonist activity on NMDA receptors [1]: strong to moderate agonist activity

Structure (SMILES): N[C@@H](CCC(=O)NCC(=O)O)C(=O)O [3-glutamyl-glycine]
antagonism / selectivity at kainate receptors ([2]; O. Goldberg et al. 1981): some selectivity for kainate receptors

Structure (SMILES): Cc1onc(O)c1CC(N)C(=O)O (stereo not drawn) [AMPA, 2-amino-3-hydroxy-5-methyl-4-isoxazolepropionic acid]
agonist activity at AMPA receptors [3]: activated selectively

Structure (SMILES): N[C@H](CCCC(=O)O)C(=O)O [D-2-amino-adipic acid]
antagonist activity at NMDA receptors [1]: moderate antagonist activity

Structure (SMILES): N[C@H](CCCP(=O)(O)O)C(=O)O [D-APV, 2-amino-5-phosphono-valeric acid]
antagonist activity at NMDA receptors [1]: most potent and selective antagonists

Structure (SMILES): N[C@H](CCC(=O)O)C(=O)O [D-glutamic acid]
agonist activity on NMDA receptors [1]: strong to moderate agonist activity

pIC50 [4]: 6.74
pIC50 [5]: 5.41
Structure (SMILES): O=c1[nH]c2cc(-n3ccnc3)ccc2n2c(=O)[nH]nc12 [Example 1, 7-(1H-Imidazol-1-yl)[1,2,4]triazolo[4,3-a]quinoxaline-1,4(2H,5H)-dione]

pIC50 [4]: 5.77
pIC50 [5]: 5.32
Structure (SMILES): O=c1[nH]c2cc(-n3ccnc3)c(C(F)(F)F)cc2n2c(=O)[nH]nc12 [Example 2, 7-(1H-Imidazol-1-yl)-8-trifluoromethyl[1,2,4]triazolo[4,3-a]quinoxaline-1,4(2H,5H)-dione]

Structure (SMILES): CCOC(=O)CC[C@H](N)C(=O)OCC [GDEE, Glutamic acid diethyl ester]
antagonist activity at AMPA receptors [3]: selective but very weak antagonist
sensitivity of excitatory responses to kainic acid to antagonism [2]: relatively insensitive

Structure (SMILES): N[C@H](C(=O)O)c1cc(=O)[nH]o1 [Ibotenic acid]
agonist activity on NMDA receptors [1]: strong to moderate agonist activity

Structure (SMILES): N[C@@H](CCC(=O)O)C(=O)O [L-glutamic acid]
agonist activity at AMPA receptors [3]: potent agonists

Structure (SMILES): N[C@@H](CCS(=O)(=O)O)C(=O)O [L-homocysteic acid]
agonist activity on NMDA receptors [1]: strong to moderate agonist activity

Structure (SMILES): N[C@H](CCC[C@H](N)C(=O)O)C(=O)O [diaminopimelic acid]
antagonist activity at NMDA receptors [1]: moderate antagonist activity

Structure (SMILES): N[C@@H](Cn1oc(=O)[nH]c1=O)C(=O)O [quisqualic acid]
agonist activity at AMPA receptors [3]: potent agonists
